Experimental data published in patent US20090305266A1, “TEST FOR OVARIAN CANCER BY DETECTING ABNORMALITY IN FANCD2 PATHWAY” (priority 2006, published 2009).

Legend:
Format in all cases: cell-based, human
[1] = system: ovarian surface epithelium (OSE) cells; experiment: MMC/DEB-induced chromosomal breakage and radial formation in primary ovarian epithelial cell cultures; conditions: 40 ng/ml MMC or 200 ng/ml DEB, 48 hours
Method: (§1) The ovarian cells were scraped from the ovarian surface and enzymatically disaggregated with Collagenase I (GIBCO-Invitrogen, Grand Island, N.Y.) for 4 hours. The cells were washed in RPMI 1640 medium (GIBCO-Invitrogen) and plated in 25 cm^2 flasks coated with collagen in RPMI 1640 supplemented with 20% FCS (Hyclone, Logan, Utah), 10 μg/ml insulin (Sigma, St. Louis, Mo.) and 10 ng/ml EGF (R&D Systems, Minneapolis, Minn.). Studies were performed on primary cells and immortalized cells. Ovarian cells were immortalized by transduction with a retrovirus expressing SV40 large T-antigen obtained from cell line Ψ-2/U195 (Saito et al., Mutat. Res. 294:255-62, 1993; Williams et al., Mol. Cell Bio. 8:3864-71, 1988). SV40-transformed ovarian epithelial cells were transduced with pMMP retroviral vectors containing full-length FANCD2 cDNA produced from the AM12/RVD2 cell line (Naf et al., Mol. Cell Biol. 18:5952-60, 1998; Kuang et al., Blood 96:1625-32, 2000).
(§2) These cultures were then harvested after a 2 hour exposure to 0.25 μg/ml Colcemid (Sigma). Following a 10 minute treatment with hypotonic solution (0.075 M KCl, 5% fetal calf serum) the cells were fixed with a 3:1 mixture of methanol:acetic acid. Slides were stained with Wright's stain, and breaks and radial formation was assessed by counting the number of breaks and radials in a representative number of cells.

[2] = system: peripheral blood mono-lymphocytes (PBML); experiment: MMC/DEB-induced chromosomal breakage and radial formation in PHA-stimulated peripheral blood lymphocytes;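 note: 40 ng/mL MMC and 200 ng/mL DEB for 48 hours at 37 °C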
Method: Peripheral blood was obtained from all subjects.
as §2

[3] = system: SV40-transformed OV-HR2 ovarian epithelial cells; experiment: MMC/DEB-induced radial formation, SV40-transformed OV-HR2 cells with and without FANCD2 complementation (FIG. 4B); conditions: 40 ng/ml MMC or 200 ng/mL DEB, 48 hours, 50 metaphases
Method: as §1, §2

[4] = system: SV40-transformed OV-CA4 ovarian epithelial cells; experiment: MMC/DEB-induced radial formation, SV40-transformed OV-CA4 cells with and without FANCD2 complementation (FIG. 4B); conditions: 40 ng/ml MMC or 200 ng/mL DEB, 48 hours, 50 metaphases
Method: as §1, §2

[5] = lymphocytes of case OV-CA 1 (carcinoma)
[6] = lymphocytes of case OV-CA 2 (carcinoma)
[7] = lymphocytes of case OV-CA 3 (carcinoma)
[8] = lymphocytes of case OV-CA 4 (carcinoma)
[9] = lymphocytes of case OV-CA 5 (carcinoma)
[10] = lymphocytes of case OV-CA 6 (carcinoma)
[11] = lymphocytes of case OV-CA 7 (carcinoma)
[12] = lymphocytes of case OV-CA 8 (carcinoma)
[13] = lymphocytes of case OV-HR 1 (high-risk)
[14] = lymphocytes of case OV-HR 2 (high-risk)
[15] = lymphocytes of case OV-HR 3 (high-risk)
[16] = lymphocytes of case OV-HR 4 L (high-risk)
[17] = lymphocytes of case OV-HR 5 L (high-risk)
[18] = lymphocytes of case OV-HR 5 R (high-risk)
[19] = lymphocytes of case OV-NL 3 (normal)
[20] = lymphocytes of case OV-NL 9 L (normal)
[21] = lymphocytes of case OV-NL 9 R (normal)
[22] = OV-HR2, FANCD2-complemented (retroviral FANCD2 cDNA)
[23] = OV-HR2, FANCD2-deficient (before FANCD2 expression)
[24] = OV-CA4, FANCD2-complemented (retroviral FANCD2 cDNA)
[25] = OV-CA4, FANCD2-deficient (before FANCD2 expression)

Compound: CO[C@@]12[C@H](COC(N)=O)C3=C(C(=O)C(C)=C(N)C3=O)N1C[C@@H]1N[C@@H]12 [MMC, Mitomycin C]
- Radials (%) OSE MMC/DEB ([1]; case OV-CA 1 (carcinoma)): 14%
- Radials (%) OSE MMC/DEB ([1]; case OV-CA 2 (carcinoma)): 12%
- Radials (%) OSE MMC/DEB ([1]; case OV-CA 3 (carcinoma)): 16%
- Radials (%) OSE MMC/DEB ([1]; case OV-CA 4 (carcinoma)): 70%
- Radials (%) OSE MMC/DEB ([1]; case OV-CA 5 (carcinoma)): 12%
- Radials (%) OSE MMC/DEB ([1]; case OV-CA 6 (carcinoma)): 66/N.D. %
- Radials (%) OSE MMC/DEB ([1]; case OV-CA 7 (carcinoma)): 0/N.D. %
- Radials (%) OSE MMC/DEB ([1]; case OV-CA 8 (carcinoma)): 33/N.D. %
- Radials (%) OSE MMC/DEB ([1]; case OV-HR 1 (high-risk)): 10%
- Radials (%) OSE MMC/DEB ([1]; case OV-HR 2 (high-risk)): 50%
- Radials (%) OSE MMC/DEB ([1]; case OV-HR 3 (high-risk)): 64%
- Radials (%) OSE MMC/DEB ([1]; case OV-HR 4 L (high-risk)): 66%
- Radials (%) OSE MMC/DEB ([1]; case OV-HR 5 L (high-risk)): 47%
- Radials (%) OSE MMC/DEB ([1]; case OV-HR 5 R (high-risk)): 30%
- Radials (%) OSE MMC/DEB ([1]; case OV-NL 1 (normal)): 0/0%
- Radials (%) OSE MMC/DEB ([1]; case OV-NL 2 (normal)): 0/0%
- Radials (%) OSE MMC/DEB ([1]; case OV-NL 3 (normal)): 2%
- Radials (%) OSE MMC/DEB ([1]; case OV-NL 4 (normal)): 4%
- Radials (%) OSE MMC/DEB ([1]; case OV-NL 5 (normal)): 1/1%
- Radials (%) OSE MMC/DEB ([1]; case OV-NL 6 L (normal)): 0/0%
- Radials (%) OSE MMC/DEB ([1]; case OV-NL 6 R (normal)): 0/0%
- Radials (%) OSE MMC/DEB ([1]; case OV-NL 7 (normal)): 1%
- Radials (%) OSE MMC/DEB ([1]; case OV-NL 8 (normal)): 3/3%
- Radials (%) OSE MMC/DEB ([1]; case OV-NL 9 L (normal)): 0/0%
- Radials (%) OSE MMC/DEB ([1]; case OV-NL 9 R (normal)): 0/0%
- Radials (%) PBML MMC/DEB [2, 5]: 2%
- Radials (%) PBML MMC/DEB [2, 6]: 1%
- Radials (%) PBML MMC/DEB [2, 7]: 1/1%
- Radials (%) PBML MMC/DEB [2, 8]: 4%
- Radials (%) PBML MMC/DEB [2, 9]: 2%
- Radials (%) PBML MMC/DEB [2, 10]: 1/1%
- Radials (%) PBML MMC/DEB [2, 11]: 0%
- Radials (%) PBML MMC/DEB [2, 12]: 3%
- Radials (%) PBML MMC/DEB [2, 13]: 0/0%
- Radials (%) PBML MMC/DEB [2, 14]: 0/0%
- Radials (%) PBML MMC/DEB [2, 15]: 1%
- Radials (%) PBML MMC/DEB [2, 16]: 0/0%
- Radials (%) PBML MMC/DEB [2, 17]: 0%
- Radials (%) PBML MMC/DEB [2, 18]: 0/0%
- Radials (%) PBML MMC/DEB [2, 19]: 0/0%
- Radials (%) PBML MMC/DEB ([2]; lymphocytes of case OV-NL 6 L (normal)): 0/N.D. %
- Radials (%) PBML MMC/DEB ([2]; lymphocytes of case OV-NL 6 R (normal)): 0/N.D. %
- Radials (%) PBML MMC/DEB [2, 20]: 0/0%
- Radials (%) PBML MMC/DEB [2, 21]: 0/0%
- fraction of MMC- and DEB-exposed cells with radial forms [3, 22]: 32%
- fraction of MMC- and DEB-exposed cells with radial forms [3, 23]: 60%
- fraction of MMC- and DEB-exposed cells with radial forms [4, 24]: 56%
- fraction of MMC- and DEB-exposed cells with radial forms [4, 25]: 70%

Compound: C1OC1C1CO1 (stereo not shown) [DEB, Diepoxybutane]
- Radials (%) OSE MMC/DEB ([1]; case OV-CA 1 (carcinoma)): 16%
- Radials (%) OSE MMC/DEB ([1]; case OV-CA 2 (carcinoma)): 10%
- Radials (%) OSE MMC/DEB ([1]; case OV-CA 3 (carcinoma)): 14%
- Radials (%) OSE MMC/DEB ([1]; case OV-CA 4 (carcinoma)): 48%
- Radials (%) OSE MMC/DEB ([1]; case OV-CA 5 (carcinoma)): 2%
- Radials (%) OSE MMC/DEB ([1]; case OV-HR 1 (high-risk)): 14%
- Radials (%) OSE MMC/DEB ([1]; case OV-HR 2 (high-risk)): 64%
- Radials (%) OSE MMC/DEB ([1]; case OV-HR 3 (high-risk)): 55%
- Radials (%) OSE MMC/DEB ([1]; case OV-HR 4 L (high-risk)): 50%
- Radials (%) OSE MMC/DEB ([1]; case OV-HR 5 L (high-risk)): 20%
- Radials (%) OSE MMC/DEB ([1]; case OV-HR 5 R (high-risk)): 12%
- Radials (%) OSE MMC/DEB ([1]; case OV-NL 1 (normal)): 0/0%
- Radials (%) OSE MMC/DEB ([1]; case OV-NL 2 (normal)): 0/0%
- Radials (%) OSE MMC/DEB ([1]; case OV-NL 3 (normal)): 0%
- Radials (%) OSE MMC/DEB ([1]; case OV-NL 4 (normal)): 1%
- Radials (%) OSE MMC/DEB ([1]; case OV-NL 5 (normal)): 1/1%
- Radials (%) OSE MMC/DEB ([1]; case OV-NL 6 L (normal)): 0/0%
- Radials (%) OSE MMC/DEB ([1]; case OV-NL 6 R (normal)): 0/0%
- Radials (%) OSE MMC/DEB ([1]; case OV-NL 7 (normal)): 2%
- Radials (%) OSE MMC/DEB ([1]; case OV-NL 8 (normal)): 3/3%
- Radials (%) OSE MMC/DEB ([1]; case OV-NL 9 L (normal)): 0/0%
- Radials (%) OSE MMC/DEB ([1]; case OV-NL 9 R (normal)): 0/0%
- Radials (%) PBML MMC/DEB [2, 5]: 0%
- Radials (%) PBML MMC/DEB [2, 6]: 0%
- Radials (%) PBML MMC/DEB [2, 7]: 1/1%
- Radials (%) PBML MMC/DEB [2, 8]: 2%
- Radials (%) PBML MMC/DEB [2, 9]: 0%
- Radials (%) PBML MMC/DEB [2, 10]: 1/1%
- Radials (%) PBML MMC/DEB [2, 11]: 1%
- Radials (%) PBML MMC/DEB [2, 12]: 1%
- Radials (%) PBML MMC/DEB [2, 13]: 0/0%
- Radials (%) PBML MMC/DEB [2, 14]: 0/0%
- Radials (%) PBML MMC/DEB [2, 15]: 0%
- Radials (%) PBML MMC/DEB [2, 16]: 0/0%
- Radials (%) PBML MMC/DEB [2, 17]: 1%
- Radials (%) PBML MMC/DEB [2, 18]: 0/0%
- Radials (%) PBML MMC/DEB [2, 19]: 0/0%
- Radials (%) PBML MMC/DEB [2, 20]: 0/0%
- Radials (%) PBML MMC/DEB [2, 21]: 0/0%
- fraction of MMC- and DEB-exposed cells with radial forms [3, 22]: 10%
- fraction of MMC- and DEB-exposed cells with radial forms [3, 23]: 30%
- fraction of MMC- and DEB-exposed cells with radial forms [4, 24]: 20%
- fraction of MMC- and DEB-exposed cells with radial forms [4, 25]: 48%
